These results are taken from patent publication US11918618B2, “Composition for preventing or treating gastritis or peptic ulcer” (CHONG KUN DANG PHARMACEUTICAL CORP., priority 2017, dated 2024).

One data set concerns stomach ulcer. Put plainly: Inhibition of Indomethacin-induced stomach ulcer in rats (stomach ulcer index). It counts as in vivo. Conditions: rat, single oral dose 75.0 mg/kg, Indomethacin 80 mg/kg. As to the method:
In order to confirm the inhibition rate of stomach ulcer of the Example 1 and Comparative examples 1 to 6, the test was carried out according to the following method. Test animals were randomly assigned to 10 animals of specific pathogen free (SPF) 7-week-old rat males per group so that the average body weight was maximally uniformly distributed throughout the adaptation period (7 days). […] All animals were fasted 48 hours before administration of test substances and control drug, and then each of test substances and control drug was orally administered, and Indomethacin previously prepared 30 minutes after administration was orally administered at a dose of 80 mg/kg. After anesthetizing with diethyl ether 5 hours after administration of Indomethacin, stomach was removed and the gastric mucosa was photographed with a digital camera. The area of the damaged site was analyzed using ImageJ software (NIH, Bethesda, Md.). The stomach ulcer index was measured according to the following Equation 1. Stomach ulcer index (%)=(damage area/total area)×100 [Equation 1] The stomach ulcer test by volume for the Example 1 was tested by the method as Experimental example 1, and was shown in Table 5.

The next data set deals with stomach mucus. The data set can be described thus: Effect of improving stomach mucosal amount (alcian blue binding) in Indomethacin-treated rats. It counts as in vivo. As to conditions: rat, oral dose 100.0 mg/kg, Indomethacin 80 mg/kg. As to the method: In order to confirm the effect of improving the mucosal amount of the Example 1 and Comparative examples 1 to 6, the test was carried out according to the following method. Test animals were randomly assigned to 10 animals of specific pathogen free (SPF) 7-week-old rat males per group so that the average body weight was maximally uniformly distributed throughout the adaptation period (7 days). All animals were fasted 48 hours before administration and then test substances and control drug were orally administered, and 30 minutes after administration, Indomethacin 80 mg/kg was orally administered. […] After mixing the extract solution with diethyl ether in the same amount and shaking, it was centrifuged at 3,500 rpm for 10 minutes and for the supernatant, the absorbance was measured at 605 nm. 0.1% w/v alcian blue 8 GX solution was diluted with 0.25 M sucrose solution and standard solution was prepared and thereby a standard curve was fabricated and the measured absorbance value was converted into the amount of alcian blue combined with the stomach mucus, and the result was shown in Table 3.

The subject of a further data set is PGE2. Put plainly: Improvement of PGE2 in serum (PGE2 ELISA Kit) of Indomethacin-treated rats. It counts as in vivo. As to conditions: rat serum, oral dose 100.0 mg/kg. From the text:
Since the recovery mechanism of stomach mucous membrane blood stream and epithelial cells is maintained and the action of preserving cells of the stomach mucous membrane was shown, when PGE2 in serum is increased, the enhanced improvement of PGE2 affects treatment of gastritis or stomach ulcer. In order to confirm the effect of the Example 1 and Comparative examples 2, 5 to 6 according to the present invention for this improvement of PGE2, for the blood collected in Test example 2, serum was separated according to the protocol provided by the manufacturer of PGE2 ELISA Kit and then sampling treatment was carried out, and then it was analyzed, and the result was shown in the following Table 4.

For data set [1] the following is noted: reported in the literature; cited from earlier work.

Turning to `CNC(=C[N+](=O)[O-])NCCSCc1ccc(CN(C)C)o1` [Comparative example 4, Ranitidine], in the data set on stomach ulcer, the “Inhibition rate (%), compared to the induced group” value amounted to 97.0% and the “Stomach ulcer index (%)” value is 0.20 ± 0.29 %.

As for `O=C(NC(Cc1cc(=O)[nH]c2ccccc12)C(=O)O)c1ccc(Cl)cc1` (stereo not shown) [Comparative example 5, Rebamipide], in the data set with stomach mucus, the Mucosal amount came out at 10.6 ± 3.7 µg/L and the “Mucosal amount, % compared to the normal group” value was found to be 94.6%. In the data set on PGE2, the PGE2 was found to be 1.82 ± 0.14 ng/mL. The “PGE2, % compared to the normal group” value in the data set with PGE2 (normal group 100, induced group 0) was found to be 77.7%.

On to `O=C/C=C/c1ccccc1` [cinnamic aldehyde], for which, in data set [1], the “stability at the room temperature” value was “low”.
